Measured values as given in patent publication US12016314B2, “MicroRNA inhibitor therapy in systemic lupus erythematosus” (Ohio State Innovation Foundation, priority 2017, dated 2024).

B1: prolactin: hormone prolactin (Sigma), 10 ng/mL (protein, UniProt P01236 29-227, looked up)
Prolactin: LPICPGGAARCQVTLRDLFDRAVVLSHYIHNLSSEMFSEFDKRYTHGRGFITKAINSCHTSSLATPEDKEQAQQMNQKDFLSLIVSILRSWNEPLYHLVTEVRGMQEAPEAILSKAVEIEEQTKRLLEGMELIVSQVHPETKENEIYPVWSGLPSLQMADEESRLSAYYNLLHCLRRDSHKIDNYLKLLKCRIIHNNNC

Experiments:
[1] = test system: TLR8; assay: TLR8 mRNA expression in primary human macrophages incubated with autologous serum; type: cell-based; details: primary human macrophages of healthy donors, 24 h
Description: RNA was quantitated using a NanoDrop 1000 spectrophotometer (NanoDrop Products, Wilmington, DE). cDNA was synthesized using High Capacity cDNA Reverse Transcription Kit (Applied Biosystems, Foster City, CA) following the manufacturer's protocol and qPCR was performed using the TaqMan system (Applied Biosystems) using cDNA and gene specific primers in accordance with the manufacturer's protocol.
(§1) To target autologous EVs containing miR-21, primary human PBMCs were isolated from whole blood as indicated above, incubated in the presence of 20% autogolous serum, and treated with locked nucleic acid (LNA) sequences designed to antagonize miR-21 (Exiqon, Vedbaek, Denmark) following liposomal complexing with DOTAP (Roche) according to the manufacturer's protocol.

[2] = test system: IL-13; assay: IL-13 secretion of THP-1 cells (ELISA); type: cell-based, human; details: 24 h
[3] = test system: THP-1 cells; assay: Nanoparticle tracking analysis of extracellular vesicle production by THP-1 cells; type: cell-based, human
Description: as §1
The NanoSight LM 10 system (NanoSight, Wiltshire, United Kingdom) was used to measure the rate of Brownian motion of particles to determine the size and quantification of EVs. Briefly, the sample was injected in a NanoSight cubicle and the size of particles was obtained by determining the motion in fluid passing across the chamber. The number of particles per milliliter was measured from a 0-160 nm range and was acquired from both experimental and control samples for comparison using area under the curve calculations obtained via the linear trapezoidal analysis method.

[4] = test system: IL-12; assay: IL-12 secretion of THP-1 cells (ELISA); type: cell-based, human; details: 24 h
[5] = test system: STAT1; assay: STAT1 mRNA transcript expression (qPCR) in hematopoietic cell lines THP-1 and K562; details: THP-1 cells, separate hormone treatments, normalized to untreated cells

Molecule	reduction of TLR8 mRNA expression relative to LNA-control [1]	hormonal influence on STAT1 expression [5]	other results
CCN(CC)CCCC(C)Nc1ccnc2cc(Cl)ccc12 (centres unmarked) [Chloroquine, chloroquine]	over 95%	–	–
CCOCc1nc2c(N)nc3ccccc3c2n1CC(C)(C)O [R-848]	–	–	IL-13 expression upregulated relative to miR-control pseudoexosomes [2]: 1.75 fold; cumulative extracellular particle profiles (0-160 nm, area under the curve) relative to miR-control [3]: 3.7 fold; IL-12 expression induced compared to control treatment [4]: 5 fold
C[C@]12CCC(=O)C[C@@H]1CC[C@@H]1[C@@H]2CC[C@]2(C)[C@@H](O)CC[C@@H]12 [dihydrotestosterone, 5α-androstatin-17β-ol-one]	–	hormonal influence was only observed with estrogen treatment	–
CC(=O)[C@H]1CC[C@H]2[C@@H]3CCC4=CC(=O)CC[C@]4(C)[C@H]3CC[C@]12C [progesterone]	–	hormonal influence was only observed with estrogen treatment	–
LNA antagomiR-21: locked nucleic acid sequence designed to block miR-21, in liposomal complexes with DOTAP; CAACATCAGTCTGATAAGCT (LNA-modified, pattern not given here, delivered in liposomal complexes)	46%	–	–
B1	–	hormonal influence was only observed with estrogen treatment	–
